Columns and labels:
Assay in all cases: relative viability (nuclei count vs DMSO), 5 days (fraction); higher = more cells survive
[1] = compound: CN1C=C(C2=CC=CC=C21)/C=C\3/C4=C(C=CC=N4)NC3=O + CCNC(=O)c1noc(-c2cc(C(C)C)c(O)cc2O)c1-c1ccc(CN2CCOCC2)cc1 [Luminespib] (partner 0.01 µM)
How it was run: (§1)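 Dosing by pin tool came one day after lung cancer cell lines were seeded in 1536-well plates, using either one drug or a fixed anchor-drug dose plus five library-drug doses (not always all listed) in √10 steps. After 5 days, nuclei were counted on 4× images. Relative viability is treated-well nuclei count divided by vehicle-well nuclei count, and values are medians of duplicate plates.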

Trametinib + Pemetrexed = compound: CC(=O)Nc1cccc(-n2c(=O)n(C3CC3)c(=O)c3c(Nc4ccc(I)cc4F)n(C)c(=O)c(C)c32)c1 [Trametinib] + Nc1nc2[nH]cc(CCc3ccc(C(=O)N[C@@H](CCC(=O)O)C(=O)O)cc3)c2c(=O)[nH]1 [Pemetrexed] (partner 0.2 µM)
How it was run: as §1

Trametinib + Vorinostat = compound: CC(=O)Nc1cccc(-n2c(=O)n(C3CC3)c(=O)c3c(Nc4ccc(I)cc4F)n(C)c(=O)c(C)c32)c1 [Trametinib] + O=C(CCCCCCC(=O)Nc1ccccc1)NO [Vorinostat] (partner 1 µM)
How it was run: as §1

Trametinib + Pictilisib = compound: CC(=O)Nc1cccc(-n2c(=O)n(C3CC3)c(=O)c3c(Nc4ccc(I)cc4F)n(C)c(=O)c(C)c32)c1 [Trametinib] + CS(=O)(=O)N1CCN(Cc2cc3nc(-c4cccc5[nH]ncc45)nc(N4CCOCC4)c3s2)CC1 [Pictilisib] (partner 1 µM)
How it was run: as §1

Row | Cell Line | relative viability ([1]; first compound 0.02 µM) | relative viability ([1]; first compound 0.06325 µM) | relative viability ([1]; first compound 0.6325 µM) | relative viability ([1]; first compound 2 µM) | relative viability (Trametinib + Pemetrexed; first compound 0.0025 µM) | relative viability (Trametinib + Pemetrexed; first compound 0.007906 µM) | relative viability (Trametinib + Pemetrexed; first compound 0.025 µM) | relative viability (Trametinib + Pemetrexed; first compound 0.07906 µM) | relative viability (Trametinib + Pemetrexed; first compound 0.25 µM) | relative viability (Trametinib + Vorinostat; first compound 0.0025 µM) | relative viability (Trametinib + Vorinostat; first compound 0.007906 µM) | relative viability (Trametinib + Vorinostat; first compound 0.025 µM) | relative viability (Trametinib + Vorinostat; first compound 0.07906 µM) | relative viability (Trametinib + Vorinostat; first compound 0.25 µM) | relative viability ([1]; first compound 0.2 µM) | relative viability (Trametinib + Pictilisib; first compound 0.0025 µM) | relative viability (Trametinib + Pictilisib; first compound 0.007906 µM) | relative viability (Trametinib + Pictilisib; first compound 0.025 µM) | relative viability (Trametinib + Pictilisib; first compound 0.07906 µM) | relative viability (Trametinib + Pictilisib; first compound 0.25 µM)
1 | SW 900 | 0.191 | 0.186 | 0.165 | 0.176 | 0.439 | 0.471 | 0.487 | 0.459 | 0.224 | 0.44 | 0.545 | 0.439 | 0.456 | 0.138 |  |  |  |  |  | 
2 | PC-3 [JPC-3] | 0.628 | 0.595 | 0.682 | 0.839 | 0.994 | 0.782 | 0.773 |  | 0.598 | 0.82 | 0.722 | 0.557 |  | 0.53 | 0.647 | 0.765 | 0.474 | 0.484 | 0.438 | 0.44
3 | NCI-H1703 |  |  |  |  |  |  |  |  |  |  |  |  |  |  |  | 0.23 | 0.224 | 0.206 | 0.269 | 0.258
4 | EPLC-272H | 0.156 | 0.309 |  | 0.383 | 0.318 | 0.328 | 0.287 | 0.294 | 0.27 | 0.455 | 0.368 | 0.233 | 0.148 | 0.162 | 0.169 | 0.268 | 0.221 | 0.175 | 0.174 | 0.0951
5 | NCI-H1792 | 0.447 | 0.447 | 0.413 | 0.643 | 0.751 | 0.645 | 0.363 | 0.328 | 0.154 |  |  |  |  |  |  | 0.227 | 0.183 | 0.182 | 0.152 | 0.104
6 | NCI-H2085 | 0.454 | 0.412 | 0.411 | 0.485 | 0.752 | 0.676 | 0.545 | 0.528 | 0.516 | 0.695 | 0.718 | 0.501 | 0.609 | 0.563 | 0.436 | 0.412 | 0.353 | 0.418 | 0.327 | 0.32
7 | LK-2 |  |  | 0.189 | 0.186 | 0.226 | 0.305 | 0.213 | 0.184 | 0.102 | 0.346 | 0.288 | 0.164 | 0.344 | 0.326 |  | 0.457 | 0.571 | 0.54 | 0.575 | 0.294
8 | NCI-H1395 | 0.876 | 0.595 | 0.696 | 0.669 | 0.952 | 0.837 | 0.708 | 0.609 | 0.466 | 0.78 | 0.627 | 0.593 | 0.415 | 0.384 | 0.521 | 0.607 | 0.631 | 0.576 | 0.453 | 0.65
9 | ABC-1 |  | 0.531 | 0.678 | 0.801 |  |  |  |  |  | 0.798 | 0.898 | 0.562 | 0.613 | 0.349 |  | 0.552 | 0.56 | 0.363 | 0.458 | 0.28
10 | RERF-LC-KJ | 1.21 | 1.14 | 1.24 | 1.37 | 0.481 | 0.474 | 0.435 | 0.494 | 0.422 | 0.549 | 0.621 | 0.6 | 0.569 | 0.472 | 1.22 | 0.417 | 0.449 | 0.503 | 0.494 | 0.458
11 | LU99A | 0.265 | 0.255 | 0.355 | 0.28 | 0.206 | 0.208 | 0.203 | 0.193 | 0.206 | 0.546 | 0.503 | 0.291 | 0.397 | 0.254 | 0.275 | 0.279 | 0.318 | 0.217 | 0.197 | 0.197
12 | NCI-H650 | 0.573 | 0.775 | 0.757 | 0.889 | 1.12 | 1.31 | 1.01 | 1.06 | 0.884 | 0.528 | 0.585 | 0.392 | 0.569 | 0.667 |  | 1.05 | 1.18 | 0.998 | 0.919 | 0.565
13 | NCI-H2347 |  | 0.288 | 0.339 | 0.569 | 0.425 | 0.44 | 0.362 | 0.302 | 0.337 | 0.467 | 0.358 | 0.289 | 0.329 | 0.358 | 0.352 | 0.452 | 0.301 | 0.221 | 0.229 | 0.272
14 | HARA | 0.347 | 0.951 | 0.558 | 0.676 | 0.224 | 0.226 | 0.254 | 0.212 | 0.219 | 0.387 | 0.403 | 0.298 | 0.251 | 0.154 |  | 0.384 | 0.342 | 0.131 | 0.207 | 0.213
15 | NCI-H2228 | 0.214 | 0.0886 |  | 0.132 | 0.369 | 0.301 | 0.339 | 0.295 | 0.208 | 0.673 | 0.87 | 0.766 | 0.426 | 0.309 |  | 0.281 | 0.232 | 0.184 | 0.171 | 0.199
